Assay results published in patent publication US20240285571A1, “METHODS OF TREATING BONE INFECTIONS” (MICROBION CORPORATION, priority 2020, published 2024).
Converted amounts (≈) assume the structure as drawn. Like-named read-outs stand apart in the source and are kept apart here.

Experiments:
C. difficile [1] = assay: Agar dilution MIC, anaerobes (Example 5); assay type: cell-based, Clostridium difficile; details: Clostridioides difficile, read-out: MIC
B. fragilis = assay: Agar dilution MIC, anaerobes (Example 5); assay type: cell-based; details: Bacteroides fragilis, ATCC25285; B. fragilis MMX 123 (ATCC 25285); QC; read-out: MIC
C. difficile [2] = details: C. difficile MMX 4381 (ATCC 700057); cited from earlier work
P. aeruginosa [3] = details: P. aeruginosa MMX 103 (ATCC 27853); cited from earlier work
S. aureus = assay: Broth microdilution MIC (Example 5); assay type: cell-based, Staphylococcus aureus
Protocol: (§1) Test and Comparator Agents: The test agents were stored at room temperature until assayed. […] The stock solutions were allowed to stand for at least 1 hr prior to use to auto-sterilize.
(§2) TestMedia: Test media were prepared and stored in accordance with guidelines from CLSI (4, 6, 7).
(§3) Broth Microdilution MC Testing (Aerobic Bacteria and Yeast): The broth microdilution assay method employed for the susceptibility testing of aerobic bacteria (excluding N. gonorrhoeae which was evaluated by agar dilution) and yeast essentially followed the procedures described by CLSI (3, 4, 7, 8) and employed automated liquid handlers to conduct serial dilutions and liquid transfers. […] These would become the ‘mother plates’ from which ‘daughter’ or test plates would be prepared. The drugs (300 μL at 40× the desired top concentration in the test plates) were dispensed into the appropriate well in Column 1 of the mother plates. The Biomek 2000 was used to make serial two-fold dilutions through Column 11 in the “mother plate”. The wells of Column 12 contained no drug and ultimately served as the organism growth control wells.
(§4) The daughter plates were prepared using the Biomek FX which transferred 5 μL of drug solution from each well of a mother plate to the corresponding well of the correct daughter plate in a single step.
(§5) A standardized inoculum of each organism was prepared per CLSI methods (3, 7). Isolated colonies of each test isolate were picked from the primary plate and a suspension was prepared to equal a 0.5 McFarland turbidity standard. Standardized suspensions were then diluted […] (1:100 for yeast, 1:20 for bacteria). After dilution, the inoculum suspensions were then transferred to compartments of sterile reservoirs divided by length (Beckman Coulter), and the Biomek 2000 was used to inoculate all plates. Daughter plates were placed on the Biomek 2000 in reverse orientation so that plates were inoculated from low to high drug concentration.
(§6) The Biomek 2000 delivered 10 μL of standardized inoculum into each well of the appropriate daughter plate for an additional 1:20 dilution.
(§7) Plates were stacked 4 high, covered with a lid on the top plate, placed into plastic bags, and incubated at 35° C. for approximately 24-48 hr for all yeast isolates and 16-24 hr for aerobic bacteria. Plates were viewed from the bottom using a plate viewer. […] MIC endpoints for the test agents and control compounds were read per CLSI criteria (3, 7).

P. aeruginosa [4] = assay: Broth microdilution MIC (Example 5); assay type: cell-based, Pseudomonas aeruginosa
Protocol: as §1, §2, §3, §4, §5, §6, §7

A. baumannii = assay: Broth microdilution MIC (Example 5); assay type: cell-based, Acinetobacter baumannii
Protocol: as §1, §2, §3, §4, §5, §6, §7

E. faecalis = assay: Broth microdilution MIC (Example 5); assay type: cell-based, Enterococcus faecalis; details: VRE
Protocol: as §1, §2, §3, §4, §5, §6, §7

K. pneumoniae = assay: Broth microdilution MIC (Example 5); assay type: cell-based, Klebsiella pneumoniae
Protocol: as §1, §2, §3, §4, §5, §6, §7

E. faecium = assay: Broth microdilution MIC (Example 5); assay type: cell-based; details: VRE vanA
How it was run: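 CLSI broth microdilution; two-fold serial dilutions, drug-free growth-control wells. Inoculum 0.5 McFarland, diluted 1:20 in media, then a further 1:20 in wells.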

E. coli [5] = assay: Broth microdilution MIC (Example 5); assay type: cell-based, Escherichia coli
Protocol: as §1, §2, §3, §4, §5, §6, §7

E. cloacae = assay: Broth microdilution MIC (Example 5); assay type: cell-based, Enterobacter cloacae; details: E. cloacae MMX 5981 (ATCC BAA-2468); NDM-1
Protocol: as §1, §2
Broth Microdilution MC Testing (Aerobic Bacteria and Yeast): The broth microdilution assay method employed for the susceptibility testing of aerobic bacteria (excluding N. gonorrhoeae which was evaluated by agar dilution) and yeast essentially followed the procedures described by CLSI (3, 4, 7, 8) and employed automated liquid handlers to conduct serial dilutions and liquid transfers. […] These would become the ‘mother plates’ from which ‘daughter’ or test plates would be prepared. The drugs (300 μL at 40× the desired top concentration in the test plates) were dispensed into the appropriate well in Column 1 of the mother plates. The Biomek 2000 was used to make serial two-fold dilutions through Column 11 in the “mother plate”. […]
Plates were stacked 4 high, covered with a lid on the top plate, placed into plastic bags, and incubated at 35° C. for approximately 24-48 hr for all yeast isolates and 16-24 hr for aerobic bacteria. […] MIC endpoints for the test agents and control compounds were read per CLSI criteria (3, 7).

E. coli [6] = details: E. coli MMX 102 (ATCC 25922); cited from earlier work

Q: Which MIC (C. difficile [1]; ATCC700057, C. difficile MMX 4381 (ATCC 700057), QC, CCI) does the source give for `CCc1c(Cl)c(O)c(Cl)c(O)c1C(=O)O[C@H]1[C@H](O)[C@H](OC)[C@H](OC/C2=C\C=C\C[C@H](O)/C(C)=C/[C@H](CC)[C@@H](O[C@@H]3OC(C)(C)[C@@H](OC(=O)C(C)C)[C@H](O)[C@@H]3O)/C(C)=C/C(C)=C/C[C@@H]([C@@H](C)O)OC2=O)O[C@@H]1C` [Fidaxomicin] here?
A: 0.25 µg/mL (≈ 0.236 µM)

Q: And the MIC (C. difficile [1]; C. difficile MMX 8272, ribotype 255, CCI)?
A: 0.5 µg/mL (≈ 0.473 µM)

Q: What about the MIC (C. difficile [1]; C. difficile MMX 8279, ribotype 005, CCR) of the same compound?
A: 0.5 µg/mL (≈ 0.473 µM)

Q: And the MIC (C. difficile [1]; C. difficile MMX 8281, ribotype 010, CCR)?
A: 0.5 µg/mL (≈ 0.473 µM)

Q: And the MIC (C. difficile [1]; NCTC13307, C. difficile MMX 5681 (NCTC 13307), ribotype 012, CCR)?
A: 0.5 µg/mL (≈ 0.473 µM)

Q: And the MIC (C. difficile [1]; NCTC13336, C. difficile MMX 5680 (NCTC 13336), ribotype 027, CCI METR)?
A: 4 µg/mL (≈ 3.78 µM)

Q: What about the MIC (B. fragilis) of the same compound?
A: > 64 µg/mL

Q: What about the “CLSI QC range of MIC” value (C. difficile [2]) of the same compound?
A: (0.06-0.25) μg/mL

Q: For Gentamicin [reference compound], which “CLSI QC range of MIC” value (P. aeruginosa [3]) is on record?
A: (0.5-2) μg/mL

Q: What about the MIC (S. aureus; S. aureus MMX 101 (ATCC 29213), QC, MSSA) of the same compound?
A: 0.12 µg/mL

Q: And the MIC (S. aureus; S. aureus MMX 5373, MRSA)?
A: 0.25 µg/mL

Q: And the MIC (S. aureus; S. aureus MMX 6311, MRSA)?
A: 0.25 µg/mL

Q: And the MIC (S. aureus; S. aureus MMX 9203, MRSA)?
A: 0.12 µg/mL

Q: What about the MIC (S. aureus; S. aureus MMX 9204, MRSA) of the same compound?
A: 0.25 µg/mL

Q: What about the MIC (S. aureus; S. aureus MMX 9205, MRSA) of the same compound?
A: 0.25 µg/mL

Q: And the MIC (P. aeruginosa [4]; P. aeruginosa MMX 103 (ATCC 27853), QC)?
A: 1 µg/mL

Q: What about the MIC (P. aeruginosa [4]; P. aeruginosa MMX 1381, MDR) of the same compound?
A: 8 µg/mL

Q: What about the MIC (P. aeruginosa [4]; P. aeruginosa MMX 2562, MDR) of the same compound?
A: 8 µg/mL

Q: And the MIC (P. aeruginosa [4]; P. aeruginosa MMX 3991, MDR)?
A: 4 µg/mL

Q: And the MIC (P. aeruginosa [4]; P. aeruginosa MMX 4654, IMP-7)?
A: >64 µg/mL

Q: And the MIC (P. aeruginosa [4]; P. aeruginosa MMX 4697, VIM-2)?
A: 4 µg/mL

Q: And the MIC (A. baumannii; A. baumannii MMX 2592, MDR)?
A: >64 µg/mL

Q: And the MIC (A. baumannii; A. baumannii MMX 2593, MDR)?
A: >64 µg/mL

Q: And the MIC (A. baumannii; A. baumannii MMX 3372, MDR)?
A: 0.5 µg/mL

Q: What about the MIC (A. baumannii; A. baumannii MMX 3373, Sensitive) of the same compound?
A: 0.12 µg/mL

Q: What about the MIC (A. baumannii; A. baumannii MMX 4651 (NCTC 13304), MDR, OXA-27) of the same compound?
A: 8 µg/mL

Q: And the MIC (E. faecalis; E. faecalis MMX 8960)?
A: >64 µg/mL

Q: And the MIC (E. faecalis; E. faecalis MMX 8961)?
A: 8 µg/mL

Q: What about the MIC (E. faecalis; E. faecalis MMX 8962) of the same compound?
A: >64 µg/mL

Q: What about the MIC (K. pneumoniae; K. pneumoniae MMX 4622, KPC-2) of the same compound?
A: 0.25 µg/mL

Q: What about the MIC (K. pneumoniae; K. pneumoniae MMX 4623, KPC-2) of the same compound?
A: 64 µg/mL

Q: And the MIC (K. pneumoniae; K. pneumoniae MMX 4653, KPC-3)?
A: 1 µg/mL

Q: What about the MIC (K. pneumoniae; K. pneumoniae MMX 4683, KPC-2) of the same compound?
A: 1 µg/mL

Q: And the MIC (K. pneumoniae; K. pneumoniae MMX 4684, ESBL)?
A: 0.25 µg/mL

Q: What about the MIC (K. pneumoniae; K. pneumoniae MMX 4685, ESBL) of the same compound?
A: 1 µg/mL

Q: What about the MIC (K. pneumoniae; K. pneumoniae MMX 4694, KPC-3) of the same compound?
A: 8 µg/mL

Q: What about the MIC (K. pneumoniae; K. pneumoniae MMX 5979, NDM-1) of the same compound?
A: >64 µg/mL

Q: And the MIC (E. faecium; E. faecium MMX 485)?
A: >64 µg/mL

Q: And the MIC (E. faecium; E. faecium MMX 752)?
A: >64 µg/mL

Q: What about the MIC (E. coli [5]; E. coli MMX 102 (ATCC 25922), QC) of the same compound?
A: 1 µg/mL

Q: And the MIC (E. coli [5]; E. coli MMX 5980 (ATCC BAA-2469), NDM-1)?
A: >64 µg/mL

Q: What about the MIC (E. coli [5]; E. coli MMX 8423, ESBL, LevR CAZR GmR) of the same compound?
A: 64 µg/mL

Q: What about the MIC (E. coli [5]; E. coli MMX 8424, ESBL, CAZR) of the same compound?
A: 0.25 µg/mL

Q: What about the MIC (E. coli [5]; E. coli MMX 8425, ESBL, LevR CAZR GmR) of the same compound?
A: >64 µg/mL

Q: What about the MIC (E. cloacae) of the same compound?
A: >64 µg/mL

Q: And the “CLSI QC range of MIC” value (E. coli [6])?
A: (0.25-1) μg/mL
